Paper PMC11314561, “Design and Synthesis of Novel Aminoindazole-pyrrolo[2,3-b]pyridine Inhibitors of IKKα That Selectively Perturb Cellular Non-Canonical NF-κB Signalling” (Molecules, 2024)

Columns and labels:
Assay in all cases: kinase panel
Type in all cases: biochemical
Aurora-B(h) = Aurora-B(h) (Homo sapiens, UniProt Q96GD4)
Summary of the method: (§1)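 Values are percent inhibition from kinome-wide profiling of three series compounds across 231 kinases, with a structurally similar analogue tested on only 98 selected kinases.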

BRK(h) = BRK(h) (Homo sapiens, UniProt Q13882)
Summary of the method: as §1

CDK5/p35(h) = CDK5/p35(h) (Homo sapiens, UniProt Q00535)
Summary of the method: as §1

Haspin(h) = target: T1, Haspin(h) (Homo sapiens, UniProt Q8TF76)
T1 sequence (Q8TF76 1-798): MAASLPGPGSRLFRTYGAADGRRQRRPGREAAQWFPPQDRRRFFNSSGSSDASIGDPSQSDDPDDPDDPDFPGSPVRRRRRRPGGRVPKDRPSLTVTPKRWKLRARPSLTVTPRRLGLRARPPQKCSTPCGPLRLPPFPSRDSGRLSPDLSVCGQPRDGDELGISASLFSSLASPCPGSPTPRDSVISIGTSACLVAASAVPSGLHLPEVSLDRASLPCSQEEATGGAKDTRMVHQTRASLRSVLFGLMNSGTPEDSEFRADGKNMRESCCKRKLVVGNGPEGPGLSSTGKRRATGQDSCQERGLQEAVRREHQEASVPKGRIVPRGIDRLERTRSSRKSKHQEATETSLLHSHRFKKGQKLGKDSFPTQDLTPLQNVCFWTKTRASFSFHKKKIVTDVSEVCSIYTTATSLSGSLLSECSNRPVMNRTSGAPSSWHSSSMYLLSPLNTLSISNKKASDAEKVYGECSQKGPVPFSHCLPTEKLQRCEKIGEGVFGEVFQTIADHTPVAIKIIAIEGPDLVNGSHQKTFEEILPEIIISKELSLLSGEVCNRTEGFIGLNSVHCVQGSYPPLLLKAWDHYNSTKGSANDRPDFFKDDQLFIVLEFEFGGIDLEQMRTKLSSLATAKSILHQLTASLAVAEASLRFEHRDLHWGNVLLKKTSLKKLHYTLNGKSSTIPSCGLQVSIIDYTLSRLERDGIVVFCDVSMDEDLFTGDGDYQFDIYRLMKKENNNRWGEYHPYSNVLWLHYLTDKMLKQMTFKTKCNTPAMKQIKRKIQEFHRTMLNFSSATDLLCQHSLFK
Summary of the method: as §1

JAK3(h) = target: T2, JAK3(h) (Homo sapiens, UniProt P52333)
T2 sequence (P52333 1-1124): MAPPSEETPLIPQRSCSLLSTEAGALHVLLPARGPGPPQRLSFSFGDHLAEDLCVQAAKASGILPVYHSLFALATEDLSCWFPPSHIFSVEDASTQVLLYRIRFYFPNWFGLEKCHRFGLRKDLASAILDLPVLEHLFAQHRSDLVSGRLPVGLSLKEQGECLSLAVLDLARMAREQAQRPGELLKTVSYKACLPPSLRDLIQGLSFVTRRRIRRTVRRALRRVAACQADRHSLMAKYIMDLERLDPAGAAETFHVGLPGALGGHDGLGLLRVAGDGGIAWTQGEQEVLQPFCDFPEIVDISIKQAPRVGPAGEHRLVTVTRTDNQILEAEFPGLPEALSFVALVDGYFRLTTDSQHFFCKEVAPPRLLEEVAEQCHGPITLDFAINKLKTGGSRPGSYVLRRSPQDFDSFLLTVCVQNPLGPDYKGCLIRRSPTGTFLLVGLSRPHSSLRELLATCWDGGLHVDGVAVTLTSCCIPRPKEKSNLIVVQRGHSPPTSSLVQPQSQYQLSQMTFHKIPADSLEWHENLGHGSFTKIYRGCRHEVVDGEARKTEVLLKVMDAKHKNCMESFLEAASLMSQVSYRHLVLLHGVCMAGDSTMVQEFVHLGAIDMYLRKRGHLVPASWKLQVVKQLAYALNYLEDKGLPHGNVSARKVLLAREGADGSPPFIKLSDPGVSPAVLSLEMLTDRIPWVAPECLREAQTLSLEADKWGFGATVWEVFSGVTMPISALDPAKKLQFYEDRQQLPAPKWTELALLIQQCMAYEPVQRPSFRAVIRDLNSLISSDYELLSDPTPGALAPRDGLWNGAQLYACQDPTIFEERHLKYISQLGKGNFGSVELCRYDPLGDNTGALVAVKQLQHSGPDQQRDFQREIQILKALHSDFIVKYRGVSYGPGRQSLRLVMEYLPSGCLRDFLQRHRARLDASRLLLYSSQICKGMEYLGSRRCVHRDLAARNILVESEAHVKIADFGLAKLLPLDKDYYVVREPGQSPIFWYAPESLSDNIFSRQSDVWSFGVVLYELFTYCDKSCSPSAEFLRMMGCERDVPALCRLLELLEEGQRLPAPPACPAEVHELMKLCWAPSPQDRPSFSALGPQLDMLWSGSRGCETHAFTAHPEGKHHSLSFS
Summary of the method: as §1

LIMK1(h) = LIMK1(h) (Homo sapiens, UniProt P53667)
Summary of the method: as §1

MAPK1(h) = MAPK1(h) (Homo sapiens, UniProt P27361)
Summary of the method: as §1

MAPKAP-K2(h) = MAPKAP-K2(h) (Homo sapiens, UniProt P49137)
Summary of the method: as §1

MARK1(h) = MARK1(h) (Homo sapiens, UniProt Q9P0L2)
Summary of the method: as §1

PAR-1Bα(h) = PAR-1Bα(h) (Homo sapiens, UniProt Q7KZI7)
Summary of the method: as §1

PKBα(h) = PKBα(h) (Homo sapiens, UniProt P31749)
Summary of the method: as §1

PRK2(h) = PRK2(h) (Homo sapiens, UniProt Q16513)
Summary of the method: as §1

mTOR(h) = mTOR(h) (Homo sapiens, UniProt P42345)
Summary of the method: as §1

Chain of MAPKAP-K2(h) (P49137 whole entry): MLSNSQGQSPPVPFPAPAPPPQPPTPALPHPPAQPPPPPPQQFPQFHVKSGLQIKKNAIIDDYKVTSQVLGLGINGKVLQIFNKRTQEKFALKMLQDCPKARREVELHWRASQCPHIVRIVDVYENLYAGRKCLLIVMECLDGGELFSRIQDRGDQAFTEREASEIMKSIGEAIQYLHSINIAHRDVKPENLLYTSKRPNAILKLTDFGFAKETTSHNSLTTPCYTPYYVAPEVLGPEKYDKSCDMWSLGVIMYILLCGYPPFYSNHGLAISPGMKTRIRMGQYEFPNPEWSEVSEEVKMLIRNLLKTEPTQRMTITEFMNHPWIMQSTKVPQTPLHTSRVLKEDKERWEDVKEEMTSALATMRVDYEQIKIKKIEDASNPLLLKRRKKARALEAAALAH
Chain of Aurora-B(h) (Q96GD4 whole entry): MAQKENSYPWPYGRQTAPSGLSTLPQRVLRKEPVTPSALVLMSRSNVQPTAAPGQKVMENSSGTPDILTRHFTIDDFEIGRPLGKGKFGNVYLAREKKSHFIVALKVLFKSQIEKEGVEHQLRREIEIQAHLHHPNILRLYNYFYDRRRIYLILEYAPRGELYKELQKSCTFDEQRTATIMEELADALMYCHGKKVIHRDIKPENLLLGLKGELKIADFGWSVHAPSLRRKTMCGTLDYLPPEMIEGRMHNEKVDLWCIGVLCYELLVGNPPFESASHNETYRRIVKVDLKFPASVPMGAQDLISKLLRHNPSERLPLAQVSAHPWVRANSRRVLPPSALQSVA
Chain of PRK2(h) (Q16513 whole entry): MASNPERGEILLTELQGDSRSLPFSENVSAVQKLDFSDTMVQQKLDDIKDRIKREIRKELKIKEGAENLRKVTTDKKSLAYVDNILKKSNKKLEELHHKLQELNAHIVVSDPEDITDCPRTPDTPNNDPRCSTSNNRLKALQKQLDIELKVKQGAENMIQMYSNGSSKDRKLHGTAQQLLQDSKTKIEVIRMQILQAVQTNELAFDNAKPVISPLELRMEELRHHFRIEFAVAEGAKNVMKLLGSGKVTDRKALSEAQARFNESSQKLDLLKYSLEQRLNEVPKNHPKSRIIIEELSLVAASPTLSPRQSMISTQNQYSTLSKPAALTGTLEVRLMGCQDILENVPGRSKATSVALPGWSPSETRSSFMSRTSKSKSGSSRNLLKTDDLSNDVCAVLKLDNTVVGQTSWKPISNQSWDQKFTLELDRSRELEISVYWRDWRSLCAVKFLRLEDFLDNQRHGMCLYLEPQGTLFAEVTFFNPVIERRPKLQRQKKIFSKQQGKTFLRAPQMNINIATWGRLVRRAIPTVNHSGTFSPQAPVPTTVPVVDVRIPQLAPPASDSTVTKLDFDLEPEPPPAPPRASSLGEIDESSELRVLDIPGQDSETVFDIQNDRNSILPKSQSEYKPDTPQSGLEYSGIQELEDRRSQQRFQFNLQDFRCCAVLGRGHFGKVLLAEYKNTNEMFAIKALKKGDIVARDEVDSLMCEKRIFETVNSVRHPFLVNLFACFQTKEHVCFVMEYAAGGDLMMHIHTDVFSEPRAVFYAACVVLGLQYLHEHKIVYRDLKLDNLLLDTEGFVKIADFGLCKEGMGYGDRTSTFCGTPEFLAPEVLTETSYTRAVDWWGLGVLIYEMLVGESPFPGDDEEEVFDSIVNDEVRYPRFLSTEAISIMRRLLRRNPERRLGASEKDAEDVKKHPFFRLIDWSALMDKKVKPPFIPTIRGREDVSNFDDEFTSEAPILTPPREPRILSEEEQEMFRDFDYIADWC
Chain of CDK5/p35(h) (Q00535 whole entry): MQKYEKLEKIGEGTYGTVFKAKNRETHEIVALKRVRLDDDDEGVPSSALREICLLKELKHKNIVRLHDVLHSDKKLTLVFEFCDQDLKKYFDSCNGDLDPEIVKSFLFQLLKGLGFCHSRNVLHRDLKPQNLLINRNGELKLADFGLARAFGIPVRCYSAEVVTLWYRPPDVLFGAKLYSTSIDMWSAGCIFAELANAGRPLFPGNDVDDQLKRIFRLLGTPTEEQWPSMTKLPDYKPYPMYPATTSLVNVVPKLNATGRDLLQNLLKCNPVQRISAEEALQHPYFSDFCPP
Chain of CDK5/p35(h) (Q15078 whole entry partner): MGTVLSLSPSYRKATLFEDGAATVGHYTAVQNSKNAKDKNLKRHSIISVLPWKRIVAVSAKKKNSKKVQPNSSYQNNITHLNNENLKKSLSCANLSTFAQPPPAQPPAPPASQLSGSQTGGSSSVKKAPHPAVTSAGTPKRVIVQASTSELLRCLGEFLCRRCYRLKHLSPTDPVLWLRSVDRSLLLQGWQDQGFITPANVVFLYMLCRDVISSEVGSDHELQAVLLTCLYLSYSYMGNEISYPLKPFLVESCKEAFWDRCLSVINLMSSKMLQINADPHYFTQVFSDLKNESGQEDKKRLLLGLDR
Chain of LIMK1(h) (P53667 whole entry): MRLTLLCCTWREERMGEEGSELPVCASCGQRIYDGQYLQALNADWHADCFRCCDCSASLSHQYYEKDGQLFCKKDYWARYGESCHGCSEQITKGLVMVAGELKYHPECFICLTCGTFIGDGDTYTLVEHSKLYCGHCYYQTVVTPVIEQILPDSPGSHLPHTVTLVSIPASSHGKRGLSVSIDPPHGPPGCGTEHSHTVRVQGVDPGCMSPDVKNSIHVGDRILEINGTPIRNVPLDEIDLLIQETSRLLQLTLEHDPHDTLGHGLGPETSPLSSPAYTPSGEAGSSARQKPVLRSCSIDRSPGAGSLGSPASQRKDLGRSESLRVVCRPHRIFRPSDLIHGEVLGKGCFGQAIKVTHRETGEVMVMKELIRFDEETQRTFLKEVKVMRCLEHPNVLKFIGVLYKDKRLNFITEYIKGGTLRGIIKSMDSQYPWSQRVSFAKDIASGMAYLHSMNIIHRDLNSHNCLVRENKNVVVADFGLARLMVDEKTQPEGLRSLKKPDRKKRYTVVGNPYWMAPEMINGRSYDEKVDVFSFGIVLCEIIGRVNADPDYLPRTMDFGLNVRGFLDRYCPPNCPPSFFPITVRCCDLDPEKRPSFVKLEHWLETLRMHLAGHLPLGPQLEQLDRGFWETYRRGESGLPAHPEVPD
Chain of PAR-1Bα(h) (Q7KZI7 whole entry): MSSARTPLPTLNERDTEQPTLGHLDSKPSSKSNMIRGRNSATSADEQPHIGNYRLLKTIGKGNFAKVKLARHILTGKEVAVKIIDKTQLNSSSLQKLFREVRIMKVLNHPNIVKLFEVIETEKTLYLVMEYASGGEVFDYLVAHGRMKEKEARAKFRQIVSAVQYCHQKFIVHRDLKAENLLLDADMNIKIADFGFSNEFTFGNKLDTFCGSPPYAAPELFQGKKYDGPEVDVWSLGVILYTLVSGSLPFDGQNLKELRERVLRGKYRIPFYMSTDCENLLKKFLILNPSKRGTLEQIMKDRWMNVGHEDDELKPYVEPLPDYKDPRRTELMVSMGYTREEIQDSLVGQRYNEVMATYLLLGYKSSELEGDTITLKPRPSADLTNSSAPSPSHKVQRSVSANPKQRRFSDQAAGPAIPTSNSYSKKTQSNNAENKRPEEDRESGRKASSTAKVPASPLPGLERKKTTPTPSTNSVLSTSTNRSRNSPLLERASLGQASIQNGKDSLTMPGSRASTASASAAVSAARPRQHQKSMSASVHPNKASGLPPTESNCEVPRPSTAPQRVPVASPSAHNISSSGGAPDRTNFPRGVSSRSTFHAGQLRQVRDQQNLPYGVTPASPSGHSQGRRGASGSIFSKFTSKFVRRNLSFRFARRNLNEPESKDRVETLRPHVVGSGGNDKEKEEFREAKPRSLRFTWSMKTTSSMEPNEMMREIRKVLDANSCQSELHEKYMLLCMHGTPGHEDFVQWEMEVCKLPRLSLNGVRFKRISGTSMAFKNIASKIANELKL
Chain of BRK(h) (Q13882 whole entry): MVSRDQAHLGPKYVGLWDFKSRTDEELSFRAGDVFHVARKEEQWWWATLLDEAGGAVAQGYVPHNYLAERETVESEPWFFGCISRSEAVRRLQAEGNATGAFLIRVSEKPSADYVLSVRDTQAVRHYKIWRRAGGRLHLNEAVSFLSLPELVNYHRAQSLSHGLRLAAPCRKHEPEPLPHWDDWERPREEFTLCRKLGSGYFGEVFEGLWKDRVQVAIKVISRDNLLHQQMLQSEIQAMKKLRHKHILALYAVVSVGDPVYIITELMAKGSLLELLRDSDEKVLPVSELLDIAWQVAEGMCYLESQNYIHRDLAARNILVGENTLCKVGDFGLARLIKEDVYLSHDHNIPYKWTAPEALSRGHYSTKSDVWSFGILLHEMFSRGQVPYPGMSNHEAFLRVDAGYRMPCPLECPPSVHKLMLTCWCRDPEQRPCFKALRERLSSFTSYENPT
Chain of PKBα(h) (P31749 whole entry): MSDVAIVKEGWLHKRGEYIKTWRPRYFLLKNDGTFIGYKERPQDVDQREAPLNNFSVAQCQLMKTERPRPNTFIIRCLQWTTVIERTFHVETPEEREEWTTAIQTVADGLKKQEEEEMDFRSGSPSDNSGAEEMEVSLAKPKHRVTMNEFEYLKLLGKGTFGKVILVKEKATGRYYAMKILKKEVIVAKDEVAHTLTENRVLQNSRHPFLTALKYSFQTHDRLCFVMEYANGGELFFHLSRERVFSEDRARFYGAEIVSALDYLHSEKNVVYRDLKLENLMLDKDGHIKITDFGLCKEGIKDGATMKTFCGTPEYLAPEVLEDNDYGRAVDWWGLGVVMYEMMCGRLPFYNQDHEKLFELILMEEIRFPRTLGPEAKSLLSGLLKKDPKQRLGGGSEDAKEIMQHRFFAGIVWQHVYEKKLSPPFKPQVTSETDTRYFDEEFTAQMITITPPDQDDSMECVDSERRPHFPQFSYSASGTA

| Compound | inhibition at 1 µM (Aurora-B(h)) [%] | inhibition at 1 µM (BRK(h)) [%] | inhibition at 1 µM (CDK5/p35(h)) [%] | inhibition at 1 µM (Haspin(h)) [%] | inhibition at 1 µM (JAK3(h)) [%] | inhibition at 1 µM (LIMK1(h)) [%] | inhibition at 1 µM (MAPK1(h)) [%] | inhibition at 1 µM (MAPKAP-K2(h)) [%] | inhibition at 1 µM (MARK1(h)) [%] | inhibition at 1 µM (PAR-1Bα(h)) [%] | inhibition at 1 µM (PKBα(h)) [%] | inhibition at 1 µM (PRK2(h)) [%] | inhibition at 1 µM (mTOR(h)) [%] |
| --- | --- | --- | --- | --- | --- | --- | --- | --- | --- | --- | --- | --- | --- |
| Nc1n[nH]c2ccc(-c3ccnc4[nH]c(-c5cccc(OCc6ccccc6)c5)cc34)cc12 [Compound 5r [SU1261]] | 92 | 17 | 96 | 94 | 30 | 21 | -4 | -3 | 28 | 29 | 10 | 56 | 8 |
| Nc1n[nH]c2ccc(-c3ccnc4[nH]c(-c5ccnc(OCc6ccccc6)c5)cc34)cc12 [Compound 6g [SU1349]] | 71 | 8 | 90 | 92 | 18 | 15 | 18 | 1 | 17 | 20 | 4 | 19 | 0 |
| Nc1n[nH]c2ccc(-c3ccnc4[nH]c(-c5ccccc5)cc34)cc12 [Compound 4] | 99 | 46 | 101 | 101 | 76 | 58 | 46 | 38 | 84 | 86 | 8 | 85 | 10 |
